Laboratory results taken from US20060258631A1, “Methods of using fatty-acid esters of estrogens and serotonin reuptake inhibiting compounds for reducing the body weight of a mammal and compositions containing the same” (Oleoyl-Estrone Development SL, priority 2004, published 2006).
Several values for one entry are separate records, joined by “and”; a condition that tells them apart may be missing. Equal values may be shown once. Entries after “also recorded” stand apart in the source; their conditions may differ.

Legend:
[1] = Body weight and lipid change of overweight rats treated 10 days by daily gavage; format: in vivo; details: overweight male Wistar rats, 10-day daily gavage; oleoyl-estrone 10 micromol/kg, dexfenfluramine 3 mg/kg, sibutramine 5 mg/kg
From the text: (§1) Forty-five day-old male Wistar rats were used. The rats were kept in collective cages in a light cycle, temperature, and humidity-controlled environment. They were fed tap water and a self-selected cafeteria diet (containing an excess of tasty, energy-dense foods, as well as standard chow) for 45 additional days. Then they were subjected to a 5-day diet adaptation period, in which they had rat chow as the sole food available. At this point, the rats weighed 350-370 g and had plenty of body fat. Maintaining the availability of rat chow (daily consumption by the group was recorded) and tap water, body weight was recorded daily. The animals were given a daily gavage of either 0.2 mL of sunflower oil or the same vehicle containing oleoyl-estrone.
(§2) Six groups of animals were used: • a) controls, receiving a daily gavage of 0.2 mL of sunflower oil; • b) oleoyl-estrone, receiving the same daily gavage of 0.2 mL of sunflower oil, but containing oleoyl-estrone, to a a daily dose of 10 micromol per kg of body weight; • c) dexfenfluramine: receiving the same daily gavage of 0.2 mL of sunflower oil, and a second gavage of 0.2 mL of dexfenfluramine in water, to a a daily dose of 3 mg per kg of body weight; • d) dexfenfluramine plus oleoyl-estrone: receiving both gavages, 0.2 mL of oil and oleoyl-estrone (to a daily dose of 10 micromol per kg of body weight) and 0.2 mL of water and dexfenfluramine, to a daily dose of 3 mg per kg of body weight; • e) sibutramine: receiving the same daily gavage of 0.2 mL of sunflower oil, and a second gavage of 0.2 mL of sibutramine in water, to a a daily dose of 5 mg per kg of body weight; • f) sibutramine plus oleoyl-estrone: receiving both gavages, 0.2 mL of oil and oleoyl-estrone (to a daily dose of 10 micromol per kg of body weight) and 0.2 mL of water and sibutramine, to a daily dose of 5 mg per kg of body weight.
(§3) The treatment was maintained up to 10 days, when the animals were killed by decapitation, and their blood and carcass were used for analyses. Plasma was separated from the blood. The plasma was preserved frozen until its utilization for the estimation of glucose, cholesterol, triacylglycerol, free fatty acids, and insulin levels using standard methods, as well as for the estimation of alanine- and aspartate-transaminase activities.
The rat corpses, partially exsanguinated were dissected. The stomach and intestines were cleaned of their contents. The remaining carcass was sealed into polyethylene bags, autoclaved and blended to a fine paste. This paste was analysed for lipid content by extraction using trichloromethane/methanol and corrected by its water content. Lipid content in the paste was referred to whole in vivo body weight for comparison.
(§4) Samples of the rat paste were dried and used for the estimation of their caloric content using a bomb calorimeter. The initial values for lipid content were calculated from the corresponding in vivo body weights at the beginning of the experiment and applying to all the animals the mean percentage of lipid content found in the control (vehicle only) group at the end of the experiment. This same procedure was used to determine the overall energy content of the carcasses by using the experimentally found energy content of the rats in the control group. Likewise, the energy content of the pellet diet was also measured and used to estimate the energy intake of the animals.

[2] = Energy balance (carcass energy, food/energy intake, energy expenditure) of overweight rats treated 10 days; format: in vivo, male Wistar rats; details: for decrease in food consumption / loss of energy from the internal stores / net contribution of internal stores to energy expenditure: overweight male Wistar rats, 10-day daily gavage, same doses; for carcass energy content (ranking among groups): end of 10-day treatment, bomb calorimeter
From the text: as §1, §2, §3, §4
Energy expenditure (Ee) was estimated as the difference between energy intake (Ei) and accrual (Ea), since: Ei=Ee±Ea.

[3] = Plasma composition of rats after 10 days of treatment; format: in vivo, male Wistar rats; details: after 10-day treatment, compared with other groups
From the text: as §1, with “oleoyl-estrone. […]” for “oleoyl-estrone.”

| Structure (SMILES) | loss of body weight [1] | loss of lipid (body lipid) [1] [%] | decrease in food consumption [2] [%] | loss of energy from the internal stores [2] [kJ] | net contribution of internal stores to energy expenditure [2] [%] | carcass energy content (ranking among groups) [2] | plasma triacylglycerol levels [3] |
| --- | --- | --- | --- | --- | --- | --- | --- |
| CCN[C@@H](C)Cc1cccc(C(F)(F)F)c1 [dexfenfluramine] | 3% and 2.6% | ~16 | 23 | 546 | ~20 | – | – |
| CCCCCCCC/C=C\CCCCCCCC(=O)Oc1ccc2c(c1)CC[C@@H]1[C@@H]2CC[C@]2(C)C(=O)CC[C@@H]12 [oleoyl-estrone, [3(Z)]-3-[(1-oxo-9-octadecenyl)oxy]-estra-1,3,5(10)-trien-17-one] | – | 13 | 32 | 357 | – | smaller | lower; also recorded: decreased |
| CC(C)CC(N(C)C)C1(c2ccc(Cl)cc2)CCC1 (stereo not shown) [sibutramine] | 4% and 3.8% | 15 | 26 | 403 | ~20 | smaller | – |
